Measurements published in patent US4166810A, “Derivatives of 4-desacetyl VLB C-3 carboxyhydrazide” (priority 1978, dated 1979).
Read-outs that look alike come from different tables or passages of the source.

Columns and labels:
[1] = test system: B16 malignant melanoma; experiment: Survival prolongation in mice bearing B16 malignant melanoma; assay type: in vivo
Description: (§1) The compounds of this invention are active in inhibiting the growth of transplanted tumors in mice and/or in prolonging the life of tumor-innoculated mice. […] The size of the tumor was measured at 7 or 11 days where the drug inhibited tumor growth. Where life-prolongation was concerned, extra life span of treated animals over that of control animals was determined.
(§2) The following table--Table 1--gives the results of experiments in which mice bearing transplanted tumors were treated successfully with a compound of this invention. In the table, column 1 gives the name of the compound; column 2, the transplanted tumor; column 3, the dose level or dose level range and the number of days the dosage was administered; and column 4, the percent inhibition of tumor growth or percent prolongation of survival time, e.g., B16 (ROS is an abbreviation for Ridgeway osteogenic sarcoma; GLS for Gardner lymphosarcoma; P 1534 (J) for a leukemia and B16 for a malignant melanoma.

[2] = test system: Gardner lymphosarcoma (GLS); experiment: Transplanted tumor growth inhibition in mice, Gardner lymphosarcoma (GLS); assay type: in vivo; conditions: for inhibition in vivo at 0.125 mg/kg: 0.125 mg/kg × 10 days; for inhibition in vivo at 0.25 mg/kg: 0.25 mg/kg × 10 days
Description: as §1, §2

[3] = test system: Gardner lymphosarcoma; conditions: Belgian Pat. No. 813,168; cited from earlier work
[4] = test system: P 1534(J) leukemia; conditions: Belgian Pat. No. 813,168; cited from earlier work
[5] = test system: Ridgeway osteogenic sarcoma; conditions: Belgian Pat. No. 813,168; cited from earlier work
[6] = test system: transplanted tumors; conditions: Belgian Pat. No. 813,168; cited from earlier work
[7] = test system: experimental malignancies; conditions: animals; cited from earlier work
[8] = test system: leukemias; conditions: clinical trial in humans; cited from earlier work
[9] = humans; compared with vincristine; cited from earlier work
[10] = test system: vincristine-resistant leukemias; conditions: humans; cited from earlier work
[11] = Mus musculus, 168 h, measured at 7 days, read-out: Percent Inhibition (of tumor growth), 7 days
[12] = Mus musculus, 264 h, measured at 11 days, read-out: Percent Inhibition (of tumor growth), 11 days

Q: Which results are given for `CCC1(O)CC2CN(CCc3c([nH]c4ccccc34)C(C(=O)OC)(c3cc4c(cc3OC)N(C)C3C(O)(C(=O)NNC(C)=O)C(O)C5(CC)C=CCN6CCC43C65)C2)C1` (stereo not shown) [4-Desacetyl VLB C-3 N^2-acetylcarboxhydrazide]?
A: Percent Prolongation (of survival time) ([1]; 0.15 mg/kg × 3 days): 71%; Percent Prolongation (of survival time) ([1]; 0.3 mg/kg × 3 days): 100%; Percent Prolongation (of survival time) ([1]; 0.6 mg/kg × 3 days): 109%; Percent Prolongation (of survival time) ([1]; 0.9 mg/kg × 3 days): 84%; Percent Prolongation (of survival time) ([1]; 1.2 mg/kg × 3 days): 69%; Percent Inhibition (of tumor growth), 11 days ([2]; 0.5 mg/kg × 10 days, measured at 11 days): Toxic; inhibition in vivo at 0.125 mg/kg [2, 11]: 100%; inhibition in vivo at 0.25 mg/kg [2, 11]: 100%; inhibition in vivo at 0.5 mg/kg ([2]; Mus musculus, 168 h, 0.5 mg/kg × 10 days, measured at 7 days, read-out: Percent Inhibition (of tumor growth), 7 days): 100%; inhibition in vivo at 0.125 mg/kg [2, 12]: 93%; inhibition in vivo at 0.25 mg/kg [2, 12]: 100%

Q: For `CCC1(O)CC2CN(CCc3c([nH]c4ccccc34)C(C(=O)OC)(c3cc4c(cc3OC)N(C)C3C(O)(C(=O)NN)C(O)C5(CC)C=CCN6CCC43C65)C2)C1` (stereo not shown) [4-Desacetyl VLB C-3 carboxhydrazide], which “activity against Gardner lymphosarcoma” value [3] is on record?
A: The value was “active”.

Q: And the “activity against P 1534(J) leukemia” value [4]?
A: The value was “active”.

Q: What about the “activity against Ridgeway osteogenic sarcoma” value [5] of the same compound?
A: Its value is “active”.

Q: What about the “anti-tumor activity against transplanted tumors in mice” value [6] of the same compound?
A: Its value is “active anti-tumor agent against transplanted tumors in mice”.

Q: With `CCC1CC2CN(CCc3c([nH]c4ccccc34)C(C(=O)OC)(c3cc4c(cc3OC)N(C)C3C(O)(C(=O)OC)C(OC(C)=O)C5(CC)C=CCN6CCC43C65)C2)C1` (stereo not shown) [deoxy VLB "A"] as the compound, how does the “activity in the treatment of experimental malignancies” value (from here on “activity in the treatment”) [7] read?
A: The value was “found active in the treatment of experimental malignancies in animals”.

Q: Which “activity in the treatment” value [7] does the source give for `CCC1(O)CN2CCc3c([nH]c4ccccc34)C(C(=O)OC)(c3cc4c(cc3OC)N(C)C3C(O)(C(=O)OC)C(OC(C)=O)C5(CC)C=CCN6CCC43C65)CC(O)(C2)C1` (stereo not shown) [leurocolombine] here?
A: The value was “found active in the treatment of experimental malignancies in animals”.

Q: With `CC[C@]12CN3CCc4c([nH]c5ccccc45)[C@@](C(=O)OC)(c4cc5c(cc4OC)N(C=O)[C@H]4[C@@](O)(C(=O)OC)[C@H](OC(C)=O)[C@]6(CC)C=CCN7CC[C@]54[C@@H]76)C[C@@H](C3)[C@H]1O2` [leuroformine] as the compound, how does the “activity in the treatment” value [7] read?
A: Its value is “found active in the treatment of experimental malignancies in animals”.

Q: With `CC[C@]12CN3CCc4c([nH]c5ccccc45)[C@@](C(=O)OC)(c4cc5c(cc4OC)N(C)[C@H]4[C@@](O)(C(=O)OC)[C@H](OC(C)=O)[C@]6(CC)C=CCN7CC[C@]54[C@@H]76)C[C@H](C3)[C@H]1O2` [leurosine] as the compound, how does the “activity in the treatment” value [7] read?
A: The value was “found active in the treatment of experimental malignancies in animals”.

Q: For `CCC1(O)CN2CCc3c([nH]c4ccccc34)C(C(=O)OC)(c3cc4c(cc3OC)N(C)C3C(O)(C(=O)OC)C(OC(C)=O)C5(CC)C=CCN6CCC43C65)CC(C2)C1O` (stereo not shown) [vincadioline], which “activity in the treatment” value [7] is on record?
A: Its value is “found active in the treatment of experimental malignancies in animals”.

Q: For `CC[C@]1(O)C[C@H]2CN(CCc3c([nH]c4ccccc34)[C@@](C(=O)OC)(c3cc4c(cc3OC)N(C=O)[C@H]3[C@@](O)(C(=O)OC)[C@H](OC(C)=O)[C@]5(CC)C=CCN6CC[C@]43[C@@H]65)C2)C1` [vincristine, leurocristine], which “activity in the treatment” value [7] is on record?
A: The value was “found active in the treatment of experimental malignancies in animals”.

Q: For `CC[C@]1(O)C[C@@H]2CN(CCc3c([nH]c4ccccc34)[C@@](C(=O)OC)(c3cc4c(cc3OC)N(C)[C@H]3[C@@](O)(C(N)=O)[C@H](O)[C@]5(CC)C=CCN6CC[C@]43[C@@H]65)C2)C1` [vindesine, 4-desacetyl VLB C-3 carboxamide], which activity in leukemias [8] is on record?
A: The activity in leukemias was “found active in certain leukemias”.

Q: And the neurotoxicity [9]?
A: Its neurotoxicity is “less neurotoxicity than does vincristine”.

Q: And the “effectiveness against vincristine-resistant leukemias” value [10]?
A: Its value is “apparently effective against vincristine-resistant leukemias”.

Q: For leurosidine, which “activity in the treatment” value [7] is on record?
A: Its value is “found active in the treatment of experimental malignancies in animals”.
